Source: patent publication US10647680B2, “Urea compound, preparation method therefor and medical use thereof” (Ancureall Pharmaceutical (Shanghai) Co., Ltd., priority 2016, dated 2020)
Structures can show the parent of a compound that is named as a salt. Where two headings read alike, the source gives them in different places. Blank lines part the entries; values can stand above or below the molecule they belong to.

Experiments:
Solubility test = format: physicochemical; settings: in water at 25° C.±2° C.
Description: The fine powder of the test sample was weighed into an appropriate amount of water at 25° C.±2° C. and shaken vigorously for 30 seconds every 5 minutes so that it was fully dissolved within 30 minutes. If no visible solute particles were observed, it was considered completely dissolved. “Readily soluble” means that 1 g of the test sample could be dissolved in 1-10 ml of water; and “soluble” means that 1 g of the test sample could be dissolved in 10-30 ml of water; “slightly soluble” means that 1 g of the test sample could be dissolved in 30-100 ml of water; and “sparingly soluble” means that 1 g of the test sample could be dissolved in 100-1,000 ml of water; “nearly insoluble or insoluble” means that 1 g of the test sample could not be completely dissolved in 10,000 ml of water.

[1] = Stability test: high temperature test (60° C.); format: physicochemical; settings: exposed at 60° C. for 10 days, HPLC
Description: The test samples were placed into an integrated drug stability test chamber (YSEI) in an exposed way at 60° C. for 10 days. Samples were taken on the 5th and 10th days and tested according to the drug stability test indices.
(§1) An appropriate amount of test samples was taken and dissolved in acetonitrile-water (1:1), and quantitatively diluted to a solution of about 0.3 mg/ml. 20 ul of solution was injected into a liquid chromatograph (Agilent 1260 Infinity), the chromatogram was then recorded and calculated according to the percentage area method. The mobile phase was a phosphate buffer and acetonitrile aqueous solution, and then a gradient elution was carried out.

[2] = Stability test: intense light test (4500LX); format: physicochemical; settings: 4500LX±500LX light for 10 days, HPLC
Description: The test samples were placed into an integrated drug stability test chamber (YSEI) in an exposed way under 4500LX±500LX light for 10 days. Samples were taken on the 5th and 10th days and tested according to the drug stability test indices.
as §1

[3] = Stability test: high humidity test (90%); format: physicochemical; settings: 25° C., relative humidity 90%±5%, 10 days, HPLC
Description: The test samples were placed into an integrated drug stability test chamber (YSEI) in an exposed way at 25° C. and relative humidity of 90%±5% for 10 days. Samples were taken on the 5th and 10th days and tested according to the drug stability test indices.
as §1

[4] = tested on: MV4-11 (FLT3 ITD+/+ mutant type); test: In vitro growth inhibition (GI50), MV4-11; format: cell-based, human; settings: Homo sapiens, MV4-11; Cell lines of leukemia; read-out: GI 50 MV4-11 FLT3 (ITD +/+)
[5] = tested on: MOLM-13 (FLT3 ITD+/− mutant type); test: In vitro growth inhibition (GI50), MOLM-13; format: cell-based, human; settings: Homo sapiens, MOLM-13; Cell lines of leukemia; read-out: GI 50 MOLM-13 FLT3 (ITD+/−)
RS4; 11 (FLT3 wild type) = test: In vitro growth inhibition (GI50), RS4; 11; format: cell-based, human; settings: Homo sapiens, RS4-11; Cell lines of leukemia; read-out: GI 50 RS4: 11 FLT3 (WT)
[6] = tested on: K562 (FLT3 negative expression, positive expression of BCR-ABL fusion protein); test: In vitro growth inhibition (GI50), K562; format: cell-based; settings: Homo sapiens, Cell lines of leukemia, read-out: GI 50 K562 BCR-ABL
[7] = tested on: RAMOS (positive expression of Brutons tyrosine protein kinase); test: In vitro growth inhibition (GI50), RAMOS; format: cell-based; settings: Homo sapiens, Cell lines of leukemia, read-out: GI 50 Ramos BTK
U937 (FLT3 wild-type) = test: In vitro growth inhibition (GI50), U937; format: cell-based; settings: Homo sapiens, U-937; Cell lines of leukemia; read-out: GI 50 U937 FLT 3(WT)
[8] = tested on: Kasumi-1 (c-Kit N822K mutant type); test: In vitro growth inhibition (GI50), Kasumi-1; format: cell-based; settings: Homo sapiens, Cell lines of leukemia, read-out: GI 50 Kasumi-1 Kit (N822K)
Summary of the method: (§2)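 After 3–5 days of treatment (top concentration 5,000 nM, serially diluted 2- or 10-fold to 0.01 nM, solvent ≤1%), viability was read by CCK8 at OD450. Growth rate was normalised to the time-zero and solvent-control wells, and GI50 was derived from the curve. Cultures in RPMI1640 + 10% FBS.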

[9] = tested on: KG-1 (expressing FGFR1OP2-FGFR1 fusion protein); test: In vitro growth inhibition (GI50), KG-1; format: cell-based; settings: Homo sapiens; Cell lines of leukemia; read-out: GI 50 KG-1 FGFR1OP 2-FGFR1
HL-60 (FLT3 wild type) = test: In vitro growth inhibition (GI50), HL-60; format: cell-based; settings: Homo sapiens, Cell lines of leukemia, read-out: GI 50 HL60 FLT3 (WT)
Summary of the method: as §2

[10] = tested on: OCI-AML3 (NPMc+ mutant type); test: In vitro growth inhibition (GI50), OCI-AML3; format: cell-based; settings: Homo sapiens, OCI-AML-3; Cell lines of leukemia; read-out: GI 50 OCI- AML3 NPMc+
[11] = Bidirectional transmembrane transport and P-gp efflux in Caco-2 monolayer cell model; format: in vitro ADME; settings: human
Description: (§3) The Caco-2 cell transport experiment was performed using compound 77 of the present invention as a representative example.
(§4) Main procedure: Caco-2 cells (ATCC, HTB-37) were cultured in high-glucose DMEM culture medium (Hyclone) containing 10% fetal calf serum (GIBCO) and penicillin-streptomycin (100 units/mL each) (Sigma). Cells were cultured at 37° C. in an incubator containing 5% CO2. In the transport experiment, Caco-2 cells were inoculated on a filter of a 12-well Transwell plate at a density of 2×10^5 cells/well (Coming Costar, catalog #3401, 1.12 cm^2, 0.4 um of pore size). After inoculation, the Caco-2 cells would form intact cell monolayers after 21 days, including P-gp efflux transporter expression and transepithelial cell resistance (TEER) formation. During the period, the culture medium was replaced once every other day. The volume of culture medium at the transwell membrane Apical Side (A) and Basolateral Side (B) were 0.5 mL and 1.5 mL, respectively. Before the transport experiment (day 21), the preheated HBSS buffer (137 mM NaCl, 4.17 mM NaHCO3, 0.34 mM Na2HPO4, 5.37 mM KCl, 0.44 mM KH2PO4, 1.26 mM CaCl2, 0.49 mM MgCl2, 0.41 mM MgSO4, 5.55 Mm D-Glucose, 10 mM HEPES, pH 7.4) was used firstly to wash Caco-2 cell monolayers for three times, and placed to at 37° C. for incubation for 30 minutes, then TEER values were determined using a cell resistometer (Millicell-ERS2) to confirm the integrity and compactness of the cell monolayers. When the HBSS buffer solution on the transmembrane A-side or B-side was replaced with the test compound, the transport experiment was started.
(§5) Finally, after incubation at 37° C. for 2 hours, the transport experiment was terminated and 50 uL of sample solution was taken from both sides of the Transwell filter membrane separately and added to 100 μL of acetonitrile comprising internal standard compound and mixed well, then centrifuged at 13000 rpm, 4° C. for 10 min, and finally 10 μL (or a specific volume) of supernatant was used for LC-MS/MS sample analysis.
(§6) For each compound, transport experiments in the A-B and B-A directions had three replicates, i.e. n=3.
(§7) LC-MS/MS Sample Analysis: The high performance liquid chromatography (HPLC) system used in this research consisted of two pumps (Shimadzu LC-20AD) and an autosampler (Shimadzu SIL-20AC). The HPLC system was connected in series with an API 4000 triple quadrupole mass spectrometer (Applied Biosystems). The API 4000 triple quadrupole mass spectrometer was equipped with an electrospray ionization (ESI) source. Ultrapurified nitrogen was used as curtain gas, GAS1, GAS2, and collision gas, at flow rates of 20 L/h, 55 L/h, 65 L/h, and 6 L/hr, respectively. The atomization temperature of the ion source was set to 500° C. Data was collected using the software Analyst 1.5.
(§8) Data analysis: The apparent permeability coefficient (Papp) can be calculated by the rate at which a compound permeates the monolayer of Caco-2 cells. Its value is related to the absorption of the compound in vivo. After concentrations at A side and B side were determined by LC-MS/MS, the Papp value in the A-B or B-A direction was calculated according to the following formula: Papp(A→B) or Papp(B→A)=(dQ/dt)/(A*C0)=(C2h*V)/(t*π2*C0)
(§9) In the above formula, dQ/dt is the permeation rate, i.e. the amount of compound that permeated in the dt time, C0 is the initial concentration of drug on the administration side, and A is the surface area of the cell monolayer, i.e. the membrane area.
(§10) After obtaining the Papp (A→B) and Papp (B→A) values of the compound, the Efflux Ratio (ER) of the compound could be calculated by the following formula: Efflux Ratio(ER)=Papp(B−A)/Papp(A−B).
(§11) When the ratio of efflux was >2, the compound could be considered as the substrate of the efflux transporter.

P-gp = test: as above; format: in vitro ADME; settings: human, Caco-2, pH 7.4; Concentration 10, Inhibitor − (without P-gp inhibitor GF120918); read-out: Efflux Ratio Papp (B→A)/Papp (A→B)
Description: as §3, §4, §5, §6, §7, §8, §9, §10, §11

rat plasma protein = test: Binding rate to plasma protein of rats (dialysis method); format: in vitro ADME; settings: dialysis, 4 h, 37° C.; test substance 2 uM, positive control 1 uM
Description: The binding rate of compound 77 of the present invention to plasma protein at a rat plasma concentration of 2 uM was evaluated by dialysis method.
Procedure: The DMSO stock solution of compound 77 (10 mM) or the positive control propranolol (USP) was added to 500 uL of blank plasma. The final concentration of test substance in the plasma was 2 uM, and the final concentration of the positive control was 1 uM, in triplicate. 300 uL of prepared plasma samples was added to the plasma chamber, and 500 uL of dialysis buffer was added to the buffer chamber (phosphate buffer solution PBS contained 100 mM sodium phosphate and 150 mM sodium chloride, PH 7.2), sealed, and incubated for 4 h while shaking at 100 rpm, 37° C. After incubation, 50 uL sample was taken from the plasma chamber and buffer chamber, and 50 uL of PBS was added to plasma chamber samples, and 50 uL of blank plasma was added to the buffer chamber samples. Immediately, 3-fold methanol solution containing internal standard was added, to precipitate plasma protein. After centrifugation, the supernatant was taken for LC/MS/MS analysis. The plasma protein binding rate was calculated according to the following formula: % free state=(peak area ratio in the buffer chamber/the peak area ratio in the plasma chamber)×%, % binding state=100%−% free state.

High temperature (60° C.) [1]: stable
Lighting (4500 LX) [2]: stable
High Humidity (90%) [3]: stable
SMILES: CC(C)(C)c1cc(NC(=O)Nc2ccc(-n3cnc4cc(OCCN5CCOCC5)ccc43)cc2)no1 [Compound 16 Hydrochloride, 1-(5-tert-butyl-isoxazol-3-yl)-3-{4-[5-(2-morpholin-4-yl-ethoxyl)-benzimidazol-1-yl]-phenyl}-urea]
Solubility (Solubility test; listed as 16 Hydrochloride): soluble (“soluble” means that 1 g of the test sample could be dissolved in 10-30 ml of water)

High temperature (60° C.) [1]: stable
Lighting (4500 LX) [2]: stable
High Humidity (90%) [3]: stable
SMILES: COc1ccc2c(c1)ncn2-c1ccc(NC(=O)Nc2cc(C(C)(C)C)n[nH]2)cc1 [Compound 71 Mesylate, 1-(5-tert-butyl-2H-pyrazol-3-yl)-3-[4-(5-methoxyl-benzimidazol-1-yl)-phenyl]-urea]
Solubility (Solubility test; listed as 71 Mesylate): soluble (“soluble” means that 1 g of the test sample could be dissolved in 10-30 ml of water)

GI50 [4]: 1 to 10 nM
GI50 [5]: 1 to 10 nM
GI50 (RS4; 11 (FLT3 wild type)): > 1000 nM
GI50 [6]: > 1000 nM
GI50 [7]: > 1000 nM
GI50 (U937 (FLT3 wild-type)): > 1000 nM
GI50 (HL-60 (FLT3 wild type)): > 1000 nM
GI50 [10]: > 1000 nM
SMILES: COc1cc2ncn(-c3ccc(NC(=O)n4nc(C(C)(C)C)cc4N)cc3)c2cc1OC [Compound 129, 5-amino-3-tert-butyl-pyrazol-1-carboxylic acid [4-(5,6-dimethoxyl-benzimidazol-1-yl)-phenyl]-amide]
Solubility (Solubility test; listed as 129 Free base): insoluble (“nearly insoluble or insoluble” means that 1 g of the test sample could not be completely dissolved in 10,000 ml of water)
GI50 [8]: > 1000 nM
GI50 [9]: > 1000 nM

Papp A→B at 2 h ([11]; Caco-2, pH 7.4, Caco-2 monolayer cell model, transmembrane permeability, read-out: Papp(A→B) value (conclusions under the table)): < 1 ×10⁻⁶ cm/s
Papp B→A at 2 h ([11]; Caco-2, pH 7.4, Concentration 10, Inhibitor − (without P-gp inhibitor GF120918)): 20.4 ×10⁻⁶ cm/s
Papp A→B at 2 h ([11]; Caco-2, pH 7.4, Concentration 10, Inhibitor − (without P-gp inhibitor GF120918), read-out: Papp (A→B)): 0.06 ×10⁻⁶ cm/s
efflux ratio at 2 h (P-gp): 322
SMILES: C[C@H]1O[C@@H](O[C@H]2[C@@H](O)C[C@H](O[C@H]3[C@@H](O)C[C@H](O[C@H]4CC[C@@]5(C)[C@H](CC[C@@H]6[C@@H]5C[C@@H](O)[C@]5(C)[C@@H](C7=CC(=O)OC7)CC[C@]65O)C4)O[C@@H]3C)O[C@@H]2C)C[C@H](O)[C@@H]1O [Digoxin]

binding rate to the rat plasma protein (rat plasma protein): 90.11%
SMILES: CC(C)NCC(O)COc1cccc2ccccc12 (stereo not drawn) [propranolol, reference compound]
